Laboratory results: US8461107B2 (Merck Sharp & Dohme Corp., priority 2008, dated 2013)

Target: T1, HCV genotype 1b (BK) NS3 modified with a R155K mutation (Hepatitis C virus genotype 1b, UniProt P26663, R1181K)
T1 construct: HCV genotype 1b (BK) NS3 modified with a R155K mutation
Test: HCV NS3 protease time-resolved fluorescence (TRF) assay, NS3 protease 1b R155K Ki activity
Assay type: biochemical
Settings: HCV genotype 1b (BK) NS3 with R155K mutation; TRF peptide substrate 100 nM; Ki derived from IC50
Procedure, shortened: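 Pre-incubation of NS3/NS4A protease (genotype 1b BK, R155K) with inhibitor for 30 min, then 1 h at room temperature with 100 nM TRF peptide substrate in pH 7.5 HEPES buffer with 10 mM DTT. Reaction quenched with pH 5.5 MES; time-resolved fluorescence read (ex 340/em 615 nm). Ki derived from four-parameter IC50 fit via IC50=Ki(1+[S]/KM).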

| SMILES | Ki [nM] |
| --- | --- |
| CC[C@@H]1C[C@]1(NC(=O)[C@@H]1C[C@@H]2CN1C(=O)[C@H](C1CCCC1)NC(=O)O[C@@H]1CCC[C@H]1CCCCCn1c(cc3ccccc3c1=O)O2)C(=O)NS(=O)(=O)C1CC1 [(3aR,7S,10S,12R,25aR)-7-cyclopentyl-N-((1R,2R)-1-{[(cyclopropylsulfonyl)amino]carbonyl}-2-ethylcyclopropyl)-5,8,19-trioxo-1,2,3,3a,5,6,7,8,11,12,21,22,23,24,25,25a-hexadecahydro-10H,19H-9,12-methanocyclopenta[18,19][1,10,3,6,12]dioxatriazacyclononadecino[12,11-b]isoquinoline-10-carboxamide] | 0.1 to 0.5 |
| CC[C@@H]1C[C@]1(NC(=O)[C@@H]1C[C@@H]2CN1C(=O)[C@H](C1CCCC1)NC(=O)O[C@@H]1CCC[C@H]1CCCCCn1c(nc3cc(-c4ccccc4)ccc3c1=O)O2)C(=O)NS(=O)(=O)C1CC1 [(3aR,7S,10S,12R,25aR)-7-cyclopentyl-N-((1R,2R)-1-{[(cyclopropylsulfonyl)amino]carbonyl}-2-ethylcyclopropyl)-5,8,19-trioxo-16-phenyl-1,2,3,3a,5,6,7,8,11,12,21,22,23,24,25,25a-hexadecahydro-10H,19H-9,12-methanocyclopenta[18,19][1,10,3,6,12]dioxatriazacyclononadecino[11,12-b]quinazoline-10-carboxamide] | 0.1 to 0.5 |
| CC[C@@H]1C[C@]1(NC(=O)[C@@H]1C[C@@H]2CN1C(=O)[C@H](C1CCCC1)NC(=O)O[C@@H]1CCC[C@H]1CCCCCn1c(nc3cc(OC)ccc3c1=O)O2)C(=O)NS(=O)(=O)C1CC1 [(3aR,7S,10S,12R,25aR)-7-cyclopentyl-N-((1R,2R)-1-{[(cyclopropylsulfonyl)amino]carbonyl}-2-ethylcyclopropyl)-16-methoxy-5,8,19-trioxo-1,2,3,3a,5,6,7,8,11,12,21,22,23,24,25,25a-hexadecahydro-10H,19H-9,12-methanocyclopenta[18,19][1,10,3,6,12]dioxatriazacyclononadecino[11,12-b]quinazoline-10-carboxamide] | 0.1 to 0.5 |
| CC[C@@H]1C[C@]1(NC(=O)[C@@H]1C[C@@H]2CN1C(=O)[C@H](C1CCCC1)NC(=O)O[C@@H]1CCC[C@H]1CCCCCn1c(cc3cc(OC)ccc3c1=O)O2)C(=O)NS(=O)(=O)C1CC1 [(3aR,7S,10S,12R,25aR)-7-cyclopentyl-N-((1R,2R)-1-{[(cyclopropylsulfonyl)amino]carbonyl}-2-ethylcyclopropyl)-16-methoxy-5,8,19-trioxo-1,2,3,3a,5,6,7,8,11,12,21,22,23,24,25,25a-hexadecahydro-10H,19H-9,12-methanocyclopenta[18,19][1,10,3,6,12]dioxatriazacyclononadecino[12,11-b]isoquinoline-10-carboxamide] | 0.1 to 0.5 |
| CC[C@@H]1C[C@]1(NC(=O)[C@@H]1C[C@@H]2CN1C(=O)[C@H](C1CCCC1)NC(=O)O[C@@H]1CCC[C@H]1CCCCCn1c(nc3cccc(OC)c3c1=O)O2)C(=O)NS(=O)(=O)C1CC1 [(3aR,7S,10S,12R,25aR)-7-cyclopentyl-N-((1R,2R)-1-{[(cyclopropylsulfonyl)amino]carbonyl}-2-ethylcyclopropyl)-18-methoxy-5,8,19-trioxo-1,2,3,3a,5,6,7,8,11,12,21,22,23,24,25,25a-hexadecahydro-10H,19H-9,12-methanocyclopenta[18,19][1,10,3,6,12]dioxatriazacyclononadecino[11,12-b]quinazoline-10-carboxamide] | 0.5 to 1 |
| C=C[C@@H]1C[C@]1(NC(=O)[C@@H]1C[C@@H]2CN1C(=O)[C@H](C1CCCC1)NC(=O)O[C@@H]1CCC[C@H]1CCCCCn1c(nc3ccccc3c1=O)O2)C(=O)NS(=O)(=O)C1CC1 [(3aR,7S,10S,12R,25aR)-7-cyclopentyl-N-((1R,2S)-1-{[(cyclopropylsulfonyl)amino]carbonyl}-2-vinylcyclopropyl)-5,8,19-trioxo-1,2,3,3a,5,6,7,8,11,12,21,22,23,24,25,25a-hexadecahydro-10H,19H-9,12-methanocyclopenta[18,19][1,10,3,6,12]dioxatriazacyclononadecino[11,12-b]quinazoline-10-carboxamide] | < 0.1 |
| C=C[C@@H]1C[C@]1(NC(=O)[C@@H]1C[C@@H]2CN1C(=O)[C@H](C1CCCC1)NC(=O)O[C@@H]1CCC[C@H]1CCCCCn1c(nc3cc(C(F)(F)F)ccc3c1=O)O2)C(=O)NS(=O)(=O)C1CC1 [(3aR,7S,10S,12R,25aR)-7-cyclopentyl-N-((1R,2S)-1-{[(cyclopropylsulfonyl)amino]carbonyl}-2-vinylcyclopropyl)-5,8,19-trioxo-16-(trifluoromethyl)-1,2,3,3a,5,6,7,8,11,12,21,22,23,24,25,25a-hexadecahydro-10H,19H-9,12-methanocyclopenta[18,19][1,10,3,6,12]dioxatriazacyclononadecino[11,12-b]quinazoline-10-carboxamide] | 0.1 to 0.5 |
| C=C[C@@H]1C[C@]1(NC(=O)[C@@H]1C[C@@H]2CN1C(=O)[C@H](C1CCCC1)NC(=O)O[C@@H]1CCC[C@H]1CCCCCn1c(nc3c(OC)cccc3c1=O)O2)C(=O)NS(=O)(=O)C1CC1 [(3aR,7S,10S,12R,25aR)-7-cyclopentyl-N-((1R,2S)-1-{[(cyclopropylsulfonyl)amino]carbonyl}-2-vinylcyclopropyl)-15-methoxy-5,8,19-trioxo-1,2,3,3a,5,6,7,8,11,12,21,22,23,24,25,25a-hexadecahydro-10H,19H-9,12-methanocyclopenta[18,19][1,10,3,6,12]dioxatriazacyclononadecino[11,12-b]quinazoline-10-carboxamide] | < 0.1 |
| C=C[C@@H]1C[C@]1(NC(=O)[C@@H]1C[C@@H]2CN1C(=O)[C@H](C1CCCC1)NC(=O)O[C@@H]1CCC[C@H]1CCCCCn1c(nc3cc(OC)ccc3c1=O)O2)C(=O)NS(=O)(=O)C1CC1 [(3aR,7S,10S,12R,25aR)-7-cyclopentyl-N-((1R,2S)-1-{[(cyclopropylsulfonyl)amino]carbonyl}-2-vinylcyclopropyl)-16-methoxy-5,8,19-trioxo-1,2,3,3a,5,6,7,8,11,12,21,22,23,24,25,25a-hexadecahydro-10H,19H-9,12-methanocyclopenta[18,19][1,10,3,6,12]dioxatriazacyclononadecino[11,12-b]quinazoline-10-carboxamide] | < 0.1 |
| C=C[C@@H]1C[C@]1(NC(=O)[C@@H]1C[C@@H]2CN1C(=O)[C@H](C1CCCC1)NC(=O)O[C@@H]1CCC[C@H]1CCCCCn1c(cc3cc(OC)ccc3c1=O)O2)C(=O)NS(=O)(=O)C1CC1 [(3aR,7S,10S,12R,25aR)-7-cyclopentyl-N-((1R,2S)-1-{[(cyclopropylsulfonyl)amino]carbonyl}-2-vinylcyclopropyl)-16-methoxy-5,8,19-trioxo-1,2,3,3a,5,6,7,8,11,12,21,22,23,24,25,25a-hexadecahydro-10H,19H-9,12-methanocyclopenta[18,19][1,10,3,6,12]dioxatriazacyclononadecino[12,11-b]isoquinoline-10-carboxamide] | < 0.1 |
| C=C[C@@H]1C[C@]1(NC(=O)[C@@H]1C[C@@H]2CN1C(=O)[C@H](C1CCCC1)NC(=O)O[C@@H]1CCC[C@H]1CCCCCn1c(nc3cc(C)ccc3c1=O)O2)C(=O)NS(=O)(=O)C1CC1 [(3aR,7S,10S,12R,25aR)-7-cyclopentyl-N-((1R,2S)-1-{[(cyclopropylsulfonyl)amino]carbonyl}-2-vinylcyclopropyl)-16-methyl-5,8,19-trioxo-1,2,3,3a,5,6,7,8,11,12,21,22,23,24,25,25a-hexadecahydro-10H,19H-9,12-methanocyclopenta[18,19][1,10,3,6,12]dioxatriazacyclononadecino[11,12-b]quinazoline-10-carboxamide] | < 0.1 |
| C=C[C@@H]1C[C@]1(NC(=O)[C@@H]1C[C@@H]2CN1C(=O)[C@H](C1CCCC1)NC(=O)O[C@@H]1CCC[C@H]1CCCCCn1c(cc3ccc(F)cc3c1=O)O2)C(=O)NS(=O)(=O)C1CC1 [(3aR,7S,10S,12R,25aR)-7-cyclopentyl-N-((1R,2S)-1-{[(cyclopropylsulfonyl)amino]carbonyl}-2-vinylcyclopropyl)-17-fluoro-5,8,19-trioxo-1,2,3,3a,5,6,7,8,11,12,21,22,23,24,25,25a-hexadecahydro-10H,19H-9,12-methanocyclopenta[18,19][1,10,3,6,12]dioxatriazacyclononadecino[12,11-b]isoquinoline-10-carboxamide] | < 0.1 |
| C=C[C@@H]1C[C@]1(NC(=O)[C@@H]1C[C@@H]2CN1C(=O)[C@H](C1CCCC1)NC(=O)O[C@@H]1CCC[C@H]1CCCCCn1c(nc3cccc(OC)c3c1=O)O2)C(=O)NS(=O)(=O)C1CC1 [(3aR,7S,10S,12R,25aR)-7-cyclopentyl-N-((1R,2S)-1-{[(cyclopropylsulfonyl)amino]carbonyl}-2-vinylcyclopropyl)-18-methoxy-5,8,19-trioxo-1,2,3,3a,5,6,7,8,11,12,21,22,23,24,25,25a-hexadecahydro-10H,19H-9,12-methanocyclopenta[18,19][1,10,3,6,12]dioxatriazacyclononadecino[11,12-b]quinazoline-10-carboxamide] | 0.1 to 0.5 |
| C=C[C@@H]1C[C@]1(NC(=O)[C@@H]1C[C@@H]2CN1C(=O)[C@H](C(C)(C)C)NC(=O)O[C@@H]1CCC[C@H]1CCCCCn1c(cc3cc(Cl)ccc3c1=O)O2)C(=O)NS(=O)(=O)C1CC1 [(3aR,7S,10S,12R,25aR)-7-tert-butyl-16-chloro-N-((1R,2S)-1-{[(cyclopropylsulfonyl)amino]carbonyl}-2-vinylcyclopropyl)-5,8,19-trioxo-1,2,3,3a,5,6,7,8,11,12,21,22,23,24,25,25a-hexadecahydro-10H,19H-9,12-methanocyclopenta[18,19][1,10,3,6,12]dioxatriazacyclononadecino[12,11-b]isoquinoline-10-carboxamide] | < 0.1 |
